Some test systems named below: HOP-92 NSCLC; UO-31 renal; SK-OV-3 ovarian; MALME-3M melanoma; DU-145 prostate; HCT-116 colon; SK-MEL-5 melanoma; K-562 leukemia; SN12C renal; RPMI-8226 leukemia.
Common to all, as to assay: NCI-60 cell line screen, 48 h

Drawing on PubChem BioAssay (NCI), this text covers GI50 and TGI for nine compounds.

“And” between values parts separate entries of the source, which are not always exact repeats. Equal values may be shown once.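 Grown in 96-well plates, cells were treated for 48 hours with each compound at five concentrations. Insufficient inhibition: endpoint recorded as highest concentration tested. GI50 = concentration required for 50% inhibition of growth. TGI is the concentration that stops growth completely.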

For the compound `COc1ccccc1-n1c(SCc2cc(OC)c(OC)c(OC)c2)nc2ccc(Cl)cc2c1=O`, the GI50 in the test on HOP-92 NSCLC was 2.78 µM; in the test on UO-31 renal, 8.52 µM; in the test on SK-OV-3 ovarian, 7.76 µM; in the test with MALME-3M melanoma, 8.76 µM; in the test with DU-145 prostate it was 9.12 µM; with HCT-116 colon, 2.53 µM. Further, the GI50 is 1.47 µM in the test with SK-MEL-5 melanoma, 1.02 µM with K-562 leukemia, 7.81 µM in the test on SN12C renal and 3.71 µM in the test with RPMI-8226 leukemia. Further, the TGI with HOP-92 NSCLC was 99.6 µM; in the test with UO-31 renal, > 100 µM; in the test on SK-OV-3 ovarian, > 100 µM; in the test on MALME-3M melanoma, > 100 µM; with DU-145 prostate it was > 100 µM; with HCT-116 colon, > 100 µM. Also, the TGI with SK-MEL-5 melanoma, in the test on K-562 leukemia, in the test with SN12C renal and in the test with RPMI-8226 leukemia was > 100 µM throughout.

Consider `CC#CC(=O)N1CCC[C@H]1c1nc(-c2ccc(C(=O)Nc3ccccn3)cc2)c2c(N)nccn12`, for which the GI50 is 25.1 µM in the test with HOP-92 NSCLC; 32.1 µM in the test on UO-31 renal; 2.25 µM in the test on SK-OV-3 ovarian; 36.2 µM in the test on MALME-3M melanoma; 71 µM in the test on DU-145 prostate; > 76 µM in the test with HCT-116 colon. The GI50 with SK-MEL-5 melanoma was 40.5 µM; in the test with K-562 leukemia it was > 88.2 µM; in the test with SN12C renal, 47.6 µM; in the test with RPMI-8226 leukemia it was 59 µM. In addition, the TGI in the test on HOP-92 NSCLC, with UO-31 renal, in the test on SK-OV-3 ovarian, in the test with MALME-3M melanoma, with DU-145 prostate and in the test with HCT-116 colon was > 100 µM throughout. Besides, the TGI in the test on SK-MEL-5 melanoma, with K-562 leukemia, in the test with SN12C renal and in the test on RPMI-8226 leukemia was > 100 µM in each case.

For `O=C1c2cc(CCl)sc2C(=O)c2ccsc21`, the TGI in the test with HOP-92 NSCLC turned out to be 1.47 µM; in the test with UO-31 renal, 0.962 µM; with SK-OV-3 ovarian it was 3.36 µM; in the test on MALME-3M melanoma it was 0.0781 µM; in the test on DU-145 prostate, 0.332 µM; in the test on HCT-116 colon, 0.39 µM. For the same compound, the TGI was 0.0821 µM with SK-MEL-5 melanoma, 0.478 µM in the test with K-562 leukemia, 0.842 µM with SN12C renal and 0.558 µM in the test with RPMI-8226 leukemia.

As for `C=C(C)[C@H]1CC/C(C)=C/CCC(C)C(=O)CC/C(CO)=C\[C@@H]1O` (stereo partly specified), the GI50 in the test with HOP-92 NSCLC was 61.5 µM; in the test on UO-31 renal, > 100 µM; in the test on SK-OV-3 ovarian it was > 100 µM; in the test on MALME-3M melanoma, 55.3 µM; in the test with DU-145 prostate it was 60.8 µM; in the test with HCT-116 colon it was 97.4 µM. Besides, the GI50 was 40.7 µM with SK-MEL-5 melanoma, 65.6 µM with K-562 leukemia, > 100 µM in the test on SN12C renal and > 100 µM in the test on RPMI-8226 leukemia. Moreover, the TGI in the test on HOP-92 NSCLC, with UO-31 renal, with SK-OV-3 ovarian, with MALME-3M melanoma, in the test with DU-145 prostate and in the test with HCT-116 colon was > 100 µM in each case. The TGI with SK-MEL-5 melanoma, in the test on K-562 leukemia, in the test on SN12C renal and in the test on RPMI-8226 leukemia was > 100 µM in each case.

As for `O=[N+]([O-])c1ccc2c(N=Nc3c(O)ccc4ccccc34)c(O)cc(S(=O)(=O)O)c2c1`, the TGI in the test on HOP-92 NSCLC is 50 µM; in the test with UO-31 renal, 18.9 µM and 51.5 µM; with SK-OV-3 ovarian, 50 µM; in the test with MALME-3M melanoma, 40.3 µM and > 100 µM; with DU-145 prostate it was > 100 µM; in the test with HCT-116 colon, 50 µM and > 100 µM. Moreover, the TGI was 50 µM and > 100 µM in the test with SK-MEL-5 melanoma; 50 µM and > 100 µM in the test with K-562 leukemia; 50 µM and > 100 µM with SN12C renal; 50 µM and > 100 µM in the test with RPMI-8226 leukemia. Besides, the GI50 with UO-31 renal was 10.9 µM; in the test with MALME-3M melanoma it was 50.1 µM; with HCT-116 colon, 25.6 µM; in the test on SK-MEL-5 melanoma, 46.7 µM; with K-562 leukemia, 25 µM; in the test on SN12C renal it was 59 µM. Also, in the test on RPMI-8226 leukemia, the GI50 is 67.1 µM.

For the compound `COc1ccc(/C=C2\N=C3SC=C(N)N3C2=O)cc1`, the GI50 in the test on HOP-92 NSCLC is 0.224 µM; in the test with UO-31 renal it was 0.266 µM; in the test with SK-OV-3 ovarian it was 2.16 µM; with MALME-3M melanoma it was 0.23 µM; in the test with DU-145 prostate it was 1.2 µM; with HCT-116 colon, 1.11 µM. Further, the GI50 is 0.833 µM in the test with SK-MEL-5 melanoma, 1.56 µM in the test with K-562 leukemia, 1.57 µM in the test on SN12C renal and 0.492 µM with RPMI-8226 leukemia. In addition, the TGI with HOP-92 NSCLC came out at 1.93 µM; in the test with UO-31 renal, 1.61 µM; in the test on SK-OV-3 ovarian, 11.7 µM; in the test with MALME-3M melanoma, 1.52 µM; in the test with DU-145 prostate it was 2.71 µM; with HCT-116 colon it was 2.61 µM. The TGI is 2.64 µM in the test with SK-MEL-5 melanoma, 17.3 µM in the test with K-562 leukemia, 7.35 µM in the test on SN12C renal and 2.99 µM in the test with RPMI-8226 leukemia.

As for `NC(CSC(c1ccccc1)(c1ccccc1)c1ccc2ccccc2c1)C(=O)O` (stereo unspecified), the GI50 is 0.215 µM in the test on HOP-92 NSCLC; 3.1 µM in the test on UO-31 renal; 0.0806 µM in the test with SK-OV-3 ovarian; 1.33 µM with MALME-3M melanoma; 0.0986 µM in the test on DU-145 prostate; 0.0312 µM with HCT-116 colon. Further, the GI50 is 0.0438 µM in the test on SK-MEL-5 melanoma, 0.0461 µM in the test on K-562 leukemia, 0.0874 µM in the test on SN12C renal and 0.0327 µM in the test on RPMI-8226 leukemia. Besides, the TGI in the test on HOP-92 NSCLC stood at 23.2 µM; with UO-31 renal, 24.3 µM; in the test with SK-OV-3 ovarian, 29.6 µM; in the test on MALME-3M melanoma, 25.4 µM; in the test on DU-145 prostate, 0.333 µM; in the test on HCT-116 colon, 0.958 µM. Moreover, the TGI in the test with SK-MEL-5 melanoma is 11.5 µM; in the test with K-562 leukemia it was > 100 µM; with SN12C renal, 18.2 µM.

Take `CC1(C)OCN(c2ccc(Cl)cc2)Cn2c1nc1ccccc12`: the TGI with HOP-92 NSCLC was > 100 µM; in the test on UO-31 renal, 97.1 µM; in the test on SK-OV-3 ovarian, > 100 µM; in the test on MALME-3M melanoma, > 100 µM; in the test on DU-145 prostate, > 100 µM; with HCT-116 colon, > 100 µM. For the same compound, the TGI is 5.39 µM in the test on SK-MEL-5 melanoma, > 100 µM with K-562 leukemia, > 100 µM with SN12C renal and > 100 µM in the test on RPMI-8226 leukemia.

For `C=C(C)C1/C=C(/C(C)C)CC[C@]2(C)O[C@@H]2CC[C@H](C)CC1=O` (stereo partly specified), the GI50 was 99.5 µM in the test with HOP-92 NSCLC; 28.6 µM with UO-31 renal; > 100 µM with SK-OV-3 ovarian; 36.1 µM with MALME-3M melanoma; 49.6 µM with DU-145 prostate; 17.7 µM with HCT-116 colon. Also, the GI50 in the test with SK-MEL-5 melanoma is 55 µM; in the test on K-562 leukemia it was 33 µM; in the test on SN12C renal, > 100 µM; in the test on RPMI-8226 leukemia, 15.5 µM. Further, the TGI was > 100 µM with HOP-92 NSCLC; 98.1 µM with UO-31 renal; > 100 µM in the test with SK-OV-3 ovarian; > 100 µM with MALME-3M melanoma; > 100 µM in the test with DU-145 prostate; 42.2 µM with HCT-116 colon. Moreover, the TGI is > 100 µM in the test with SK-MEL-5 melanoma, > 100 µM in the test on K-562 leukemia, > 100 µM with SN12C renal and 34.4 µM with RPMI-8226 leukemia.
